Values quoted from earlier work as cited in PMC3160894, “Isolation and Characterization of CvIV4: A Pain Inducing α- Scorpion Toxin” (PLoS ONE, 2011).

System: Nav1.7
Settings: ref [19], [20]
Description: Given that buthid scorpions produce toxins that bind Na^+ channels in excitable membranes, it is plausible that their venom induces pain by initiating action potentials in nociceptors. Because some human pain disorders involve Na^+ channels expressed in nociceptors, [15], there has been an effort, albeit limited, to determine the components in buthid venom that induce pain with the goal of isolating peptides that discriminate among the DRG-expressed VGSCs. […] Because β-toxins make Na^+ channel ... || CvIV4 also slowed the fast inactivation and produced a persistent Na^+ current in rNav1.2, rNav1.3 and rNav1.4. […] Given that CvIV4 and CeII8 are similar in structure but differ in function and isoform selectivity, a comparison of these two toxins should improve our understanding of the structural characteristics that determine New World scorpion toxin selectivity and function.

Substance	Effect on fast inactivation of Nav1.7
ODI: α-toxin from Odonthobuthus doriae; GenBank P84646	slow the fast inactivation of Nav1.7
LqhIII: α-toxin from Leiurus quinquestriatus hebraeus; GenBank P59355	slow the fast inactivation of Nav1.7
AahII: α-toxin from Androctonus australis Hector; GenBank P01484	slow the fast inactivation of Nav1.7
